Source: publication PMC12405493, “Selective ubiquitination of drug-like small molecules by the ubiquitin ligase HUWE1” (Nature Communications, 2025)

Key:
HUWE1^FL = target: T1, HUWE1^FL (Homo sapiens, UniProt Q7Z6Z7); experiment: HUWE1^FL multi-turnover ubiquitination reactions without protein substrate (autoubiquitination, free Ub chains); assay type: biochemical; settings: without protein substrate; varying concentrations
T1 construct: made in house; host or cells: HEK293T (transient transfection, anti-Flag purification, SEC)
T1 sequence (Q7Z6Z7 whole entry): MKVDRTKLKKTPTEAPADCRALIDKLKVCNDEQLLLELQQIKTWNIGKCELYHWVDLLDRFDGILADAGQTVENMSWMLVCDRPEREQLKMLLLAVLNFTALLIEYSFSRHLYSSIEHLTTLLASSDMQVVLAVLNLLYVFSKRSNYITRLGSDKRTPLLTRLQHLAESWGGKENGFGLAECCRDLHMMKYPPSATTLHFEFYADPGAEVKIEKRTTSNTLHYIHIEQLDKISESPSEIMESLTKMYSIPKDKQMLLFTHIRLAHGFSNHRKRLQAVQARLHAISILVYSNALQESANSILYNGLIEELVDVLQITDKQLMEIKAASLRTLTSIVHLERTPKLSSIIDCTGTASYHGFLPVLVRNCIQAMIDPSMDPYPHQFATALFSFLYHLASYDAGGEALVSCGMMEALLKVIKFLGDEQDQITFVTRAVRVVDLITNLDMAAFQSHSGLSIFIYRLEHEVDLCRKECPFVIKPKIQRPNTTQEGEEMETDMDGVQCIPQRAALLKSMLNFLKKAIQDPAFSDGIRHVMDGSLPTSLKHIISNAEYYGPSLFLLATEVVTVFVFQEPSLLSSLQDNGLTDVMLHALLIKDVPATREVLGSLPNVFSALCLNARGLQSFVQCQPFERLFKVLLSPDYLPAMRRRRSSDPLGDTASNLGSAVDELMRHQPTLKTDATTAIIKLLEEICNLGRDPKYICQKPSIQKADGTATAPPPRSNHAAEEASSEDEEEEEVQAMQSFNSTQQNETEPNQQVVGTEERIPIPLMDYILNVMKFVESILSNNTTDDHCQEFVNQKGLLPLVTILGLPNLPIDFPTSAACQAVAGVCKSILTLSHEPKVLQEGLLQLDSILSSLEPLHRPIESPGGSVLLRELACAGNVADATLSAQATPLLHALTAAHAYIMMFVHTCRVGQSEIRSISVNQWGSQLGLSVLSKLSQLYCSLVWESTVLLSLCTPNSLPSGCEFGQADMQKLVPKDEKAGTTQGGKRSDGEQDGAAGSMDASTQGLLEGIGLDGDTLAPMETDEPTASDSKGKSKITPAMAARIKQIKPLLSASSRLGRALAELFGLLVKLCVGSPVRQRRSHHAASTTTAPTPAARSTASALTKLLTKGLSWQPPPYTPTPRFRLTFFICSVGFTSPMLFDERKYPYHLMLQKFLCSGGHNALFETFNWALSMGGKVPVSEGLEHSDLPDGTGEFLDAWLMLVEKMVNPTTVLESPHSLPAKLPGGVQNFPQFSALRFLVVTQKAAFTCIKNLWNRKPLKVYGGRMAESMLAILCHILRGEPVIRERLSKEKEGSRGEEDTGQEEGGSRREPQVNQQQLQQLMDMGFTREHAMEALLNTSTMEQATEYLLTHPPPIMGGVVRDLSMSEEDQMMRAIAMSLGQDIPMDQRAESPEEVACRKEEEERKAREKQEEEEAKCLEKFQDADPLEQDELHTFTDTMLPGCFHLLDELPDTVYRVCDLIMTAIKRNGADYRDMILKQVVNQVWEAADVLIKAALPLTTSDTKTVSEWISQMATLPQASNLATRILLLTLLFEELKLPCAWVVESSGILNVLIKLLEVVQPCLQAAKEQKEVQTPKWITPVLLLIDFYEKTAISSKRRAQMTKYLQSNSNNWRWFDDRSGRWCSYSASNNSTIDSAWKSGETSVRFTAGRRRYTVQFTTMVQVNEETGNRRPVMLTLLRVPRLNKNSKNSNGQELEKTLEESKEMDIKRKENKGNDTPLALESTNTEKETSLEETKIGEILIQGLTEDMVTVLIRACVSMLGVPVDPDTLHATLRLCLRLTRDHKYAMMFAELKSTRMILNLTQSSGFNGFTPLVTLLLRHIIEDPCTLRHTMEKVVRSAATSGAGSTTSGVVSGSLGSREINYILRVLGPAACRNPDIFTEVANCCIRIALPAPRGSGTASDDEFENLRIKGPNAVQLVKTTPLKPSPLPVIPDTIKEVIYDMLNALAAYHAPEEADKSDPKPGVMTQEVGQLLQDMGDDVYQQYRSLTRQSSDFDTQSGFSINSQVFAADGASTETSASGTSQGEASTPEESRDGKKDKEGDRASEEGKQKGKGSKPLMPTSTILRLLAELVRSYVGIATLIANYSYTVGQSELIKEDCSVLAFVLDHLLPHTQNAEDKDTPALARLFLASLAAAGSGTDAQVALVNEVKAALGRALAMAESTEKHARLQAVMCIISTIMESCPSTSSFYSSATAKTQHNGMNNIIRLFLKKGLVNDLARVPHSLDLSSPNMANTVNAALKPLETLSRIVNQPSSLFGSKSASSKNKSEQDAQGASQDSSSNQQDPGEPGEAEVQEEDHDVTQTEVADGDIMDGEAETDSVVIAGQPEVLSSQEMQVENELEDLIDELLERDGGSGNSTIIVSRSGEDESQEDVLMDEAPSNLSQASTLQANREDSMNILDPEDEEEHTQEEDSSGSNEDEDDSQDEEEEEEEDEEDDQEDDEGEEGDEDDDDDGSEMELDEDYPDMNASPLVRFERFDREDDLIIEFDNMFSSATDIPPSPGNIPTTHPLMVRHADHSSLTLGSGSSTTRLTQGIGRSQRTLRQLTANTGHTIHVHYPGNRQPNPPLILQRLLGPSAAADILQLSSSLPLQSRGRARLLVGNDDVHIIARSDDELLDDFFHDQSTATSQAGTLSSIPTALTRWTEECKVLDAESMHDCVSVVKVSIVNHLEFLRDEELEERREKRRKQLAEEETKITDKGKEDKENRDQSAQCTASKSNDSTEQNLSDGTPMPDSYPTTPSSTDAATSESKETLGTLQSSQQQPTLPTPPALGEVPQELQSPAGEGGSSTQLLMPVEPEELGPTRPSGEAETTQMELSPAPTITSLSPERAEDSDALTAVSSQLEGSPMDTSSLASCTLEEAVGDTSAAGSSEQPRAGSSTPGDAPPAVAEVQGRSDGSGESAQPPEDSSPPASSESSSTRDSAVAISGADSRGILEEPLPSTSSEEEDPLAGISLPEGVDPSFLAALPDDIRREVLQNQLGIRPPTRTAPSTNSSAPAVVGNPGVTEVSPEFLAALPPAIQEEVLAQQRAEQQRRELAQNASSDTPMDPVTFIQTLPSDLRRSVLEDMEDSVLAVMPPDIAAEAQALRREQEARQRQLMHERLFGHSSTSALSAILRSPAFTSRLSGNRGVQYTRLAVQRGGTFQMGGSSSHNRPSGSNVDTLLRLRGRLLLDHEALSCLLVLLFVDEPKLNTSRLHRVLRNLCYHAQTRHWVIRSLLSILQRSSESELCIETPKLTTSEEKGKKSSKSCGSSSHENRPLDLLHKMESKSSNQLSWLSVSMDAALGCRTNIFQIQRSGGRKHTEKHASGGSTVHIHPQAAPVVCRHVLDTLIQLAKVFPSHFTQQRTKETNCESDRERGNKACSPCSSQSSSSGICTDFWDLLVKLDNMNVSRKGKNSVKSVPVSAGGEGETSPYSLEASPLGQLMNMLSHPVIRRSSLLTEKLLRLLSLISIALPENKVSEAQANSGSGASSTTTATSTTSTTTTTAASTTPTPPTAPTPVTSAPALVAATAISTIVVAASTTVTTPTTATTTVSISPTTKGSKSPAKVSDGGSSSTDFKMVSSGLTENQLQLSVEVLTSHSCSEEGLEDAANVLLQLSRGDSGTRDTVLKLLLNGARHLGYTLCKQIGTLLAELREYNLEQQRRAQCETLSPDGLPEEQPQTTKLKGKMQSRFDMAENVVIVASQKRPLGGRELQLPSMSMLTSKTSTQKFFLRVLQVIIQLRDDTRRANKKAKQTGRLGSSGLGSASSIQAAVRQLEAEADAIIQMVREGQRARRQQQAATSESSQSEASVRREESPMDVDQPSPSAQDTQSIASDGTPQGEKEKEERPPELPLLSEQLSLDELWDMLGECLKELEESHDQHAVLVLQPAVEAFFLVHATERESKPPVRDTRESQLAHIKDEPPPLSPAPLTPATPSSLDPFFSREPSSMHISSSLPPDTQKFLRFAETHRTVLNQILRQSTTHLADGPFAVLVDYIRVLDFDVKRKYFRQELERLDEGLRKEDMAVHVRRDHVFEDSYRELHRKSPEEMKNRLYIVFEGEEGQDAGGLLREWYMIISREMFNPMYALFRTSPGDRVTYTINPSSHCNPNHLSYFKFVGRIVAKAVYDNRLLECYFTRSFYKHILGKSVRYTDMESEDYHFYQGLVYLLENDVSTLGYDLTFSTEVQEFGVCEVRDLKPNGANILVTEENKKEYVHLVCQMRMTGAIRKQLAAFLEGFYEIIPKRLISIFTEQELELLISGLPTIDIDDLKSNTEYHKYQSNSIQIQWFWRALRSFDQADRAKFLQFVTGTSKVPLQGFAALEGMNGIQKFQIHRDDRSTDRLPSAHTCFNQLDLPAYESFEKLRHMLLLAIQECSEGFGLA
Protocol: (§1) HUWE1^HECT multi-turnover ubiquitination reactions were performed for 30 minutes (unless stated otherwise) with 200 nM UBA1, 5 μM UBE2L3 or UBE2D3 (as specified), 1 μM HUWE1^HECT and 30 μM Ub in 25 mM HEPES (pH 7.5), 100 mM NaCl, 3 mM MgCl2, and 0.5 mM TCEP. HUWE1^FL multi-turnover ubiquitination reactions included 50 nM UBA1, 2.5 μM UBE2L3, 0.05 μM HUWE1^FL, 0.5 μM MCL1 (or 0.5 μM H2B or 1 μM FOXP3) and 20 μM Ub in 20 mM HEPES (pH 7.5), 100 mM NaCl, 3 mM MgCl2, and 0.5 mM TCEP. All multi-turnover reactions were started by the addition of 1 mM ATP, incubated at 30 °C, quenched with SDS-loading dye. If not stated otherwise, HUWE1^FLautoubiquitination reactions were incubated for 20 minutes. Substrate ubiquitination reactions with MCL1 or H2B were incubated for 10 and 20 min, respectively; those with FOXP3 for 30 min. Those reactions that were monitored by fluorescence contained a fluorescent Ub tracer (IRDye 800CW maleimide; LI-COR)[55] and were monitored using an Odyssey CLx scanner (LI-COR), followed by Coomassie staining. In the fluorescence images, only those marker bands are labeled (in kDa) that are visible by fluorescence; all marker bands are labeled in the Coomassie-stained images. Statistical analyses were performed with Prism 9 v.9.3.1 (GraphPad).

[1] = target: T2, HUWE1^FL (substrate MCL1) (Homo sapiens, UniProt Q7Z6Z7); experiment: HUWE1^FL-driven MCL1 ubiquitination reactions; assay type: biochemical; settings: varying concentrations
T2 construct: made in house; host or cells: HEK293T (transient transfection, anti-Flag purification, SEC)
T2 sequence (Q7Z6Z7 whole entry): as above
Protocol: as §1

HUWE1^HECT [2] = target: T3, HUWE1^HECT (Homo sapiens, UniProt Q7Z6Z7); experiment: Analytical SEC / intact protein MS of HUWE1^HECT-driven compound ubiquitination; assay type: biochemical; settings: for Compound ubiquitination by HUWE1^HECT (SEC, intact protein MS): + ATP, WT Ub; for Inhibitor ubiquitination activity of HUWE1^HECT compared with other HECT domains: SEC, monoubiquitinated compound, HUWE1^HECT signal normalized to 1
T3 construct: the isolated HECT domain of HUWE1 (HUWE1^HECT); made in house
T3 sequence (Q7Z6Z7 3993-4374): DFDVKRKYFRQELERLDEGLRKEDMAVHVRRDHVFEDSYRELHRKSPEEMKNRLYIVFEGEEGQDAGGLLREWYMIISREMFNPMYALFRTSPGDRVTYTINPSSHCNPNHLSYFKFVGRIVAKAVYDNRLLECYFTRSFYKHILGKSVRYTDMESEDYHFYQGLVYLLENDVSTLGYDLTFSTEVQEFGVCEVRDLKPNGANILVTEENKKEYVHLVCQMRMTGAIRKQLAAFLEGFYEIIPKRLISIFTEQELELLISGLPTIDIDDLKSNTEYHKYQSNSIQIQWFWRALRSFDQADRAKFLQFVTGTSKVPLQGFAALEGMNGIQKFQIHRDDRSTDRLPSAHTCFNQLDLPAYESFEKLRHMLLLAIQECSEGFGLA
Protocol: HUWE1^HECT multi-turnover ubiquitination reactions were performed with 500 nM UBA1, 5 μM UBE2L3, 5 μM HUWE1^HECT and 100 μM Ub in 20 mM HEPES (pH 7.5), 100 mM NaCl and 0.5 mM TCEP in the presence of 1 mM ATP and 3 mM MgCl2. After 15 min incubation at 30 °C, the mixture was injected into a Superdex 75 Increase 3.2/300 column (Cytiva), equilibrated in 25 mM HEPES (pH 7.5), 100 mM NaCl, and 0.5 mM TCEP at 4 °C. Chromatograms were analyzed and peaks integrated with Unicorn v.7.9.02440 (Cytiva). Data were plotted with Prism v.9.3.1 (GraphPad).
Intact protein LC/MS: protein molecular weights (MWs) were determined by LC/MS on a nanoflow chromatography system (Dionex U3000 nanoRSLC), hyphenated to a hybrid quadrupole/orbitrap mass spectrometer (Q Exactive HF) with a NanoFlex ion source and controlled by Xcalibur v.2.4 (all Thermo Fisher Scientific). Proteins were dissolved in 2% (v/v) acetonitrile (ACN), 0.1% (v/v) formic acid (FA) to a concentration of 100 fmol μL^−1. For each analysis, 500 fmol were enriched on a pre-column (0.15 ×20 mm, Reprosil-Pur120 C18-AQ 5 μm; Dr. Maisch GmbH) and separated on an analytical RP-C18 column (0.075 mm×200 mm, Reprosil-Pur 120 C18-AQ; 1.9 μm, Dr. Maisch GmbH), using a 23-min linear gradient of 10–80% (v/v) ACN/0.1% (v/v) FA at 300 nl min^−1. MS data were acquired in full MS mode across the 500–1800 m/z-range at a resolution setting of 120,000 FWHM, an AGC target of 1*10e6 and a maximum fill time of 200 ms. Charge state deconvolution and MW representation were performed in Freestyle v.1.9 (Thermo Fisher Scientific), using default settings for high-resolution data.

[3] = design: method as in PMID 25253726; settings: cited from earlier work
HUWE1^HECT [4] = target: T4, HUWE1^HECT (Homo sapiens, UniProt Q7Z6Z7); experiment: Single-turnover assay, Ub thioester transfer from E2 to HUWE1^HECT; assay type: biochemical; settings: HECT^Δ4 variant
T4 construct: HUWE1^HECTΔ4 (residues 3993–4370); made in house
T4 sequence (Q7Z6Z7 3993-4370): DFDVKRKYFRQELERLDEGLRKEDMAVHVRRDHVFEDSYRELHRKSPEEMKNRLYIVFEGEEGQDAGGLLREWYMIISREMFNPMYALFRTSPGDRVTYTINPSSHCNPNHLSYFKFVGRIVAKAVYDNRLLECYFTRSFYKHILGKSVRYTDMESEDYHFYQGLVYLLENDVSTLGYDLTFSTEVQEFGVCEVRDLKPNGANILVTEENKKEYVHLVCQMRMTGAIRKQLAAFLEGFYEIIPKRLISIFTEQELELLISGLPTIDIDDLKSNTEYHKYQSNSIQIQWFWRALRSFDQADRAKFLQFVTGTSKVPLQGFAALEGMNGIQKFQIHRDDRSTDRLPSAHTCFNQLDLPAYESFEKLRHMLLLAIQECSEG
Protocol: E3-free multi-turnover ubiquitination reactions to monitor E1 and E2 activities contained 1 μM UBA1, 5 μM UBE2L3, 100 μM Ub, 2 mM ATP and 10 mM MgCl2 in 25 mM HEPES (pH 7.4), and 0.2 mM TCEP. Reactions were incubated at 30 °C for 10 min (or otherwise, as specified) and quenched with 50 mM EDTA, followed by the addition of SDS-loading dye. Single-turnover E2~Ub discharge assays were performed similarly to previous studies. In short, 1 μM UBA1, 5 μM UBE2L3, and 100 μM Ub were pre-incubated with 2 mM ATP and 10 mM MgCl2 in 25 mM HEPES (pH 7.4) at 30 °C for 30 min, diluted 4-fold, and quenched with 50 mM EDTA. Thereafter, 1.2 μM of the UBE2L3~Ub product was incubated with 5 μM HUWE1^HECT at 30 °C for 1 min.

## Cc1c(C(=O)Nc2ccc(CN)cc2)ncnc1N1CCC(C#N)(c2ccccc2)CC1 [BI8622]
HUWE1^FL
  Inhibition of HUWE1^FL protein ubiquitination activity (E3 autoubiquitination, free Ub chain formation): inhibit the protein ubiquitination activity of the ligase in a dose-dependent manner
[1]
  Inhibition of HUWE1^FL-driven MCL1 ubiquitination: inhibit the protein ubiquitination activity of the ligase in a dose-dependent manner
HUWE1^HECT [2]; 20 μM compound
  Compound ubiquitination by HUWE1^HECT (SEC, intact protein MS): assigned to the respective monoubiquitinated compound by intact protein MS
HUWE1^HECT [2]
  Inhibitor ubiquitination activity of HUWE1^HECT compared with other HECT domains: substantially higher activity for HUWE1^HECT than for the other HECT domains
[3]
  Pharmacokinetic properties: do not allow for in vivo applications
HUWE1^HECT [4]
  Ub transfer from the E2 to HUWE1^HECT: do not obstruct Ub transfer from the E2 to HUWE1^HECT

## NCc1cccc(CNc2ncnc3c(N4CCN(Cc5ccccc5)CC4)ncnc23)c1 [BI8626]
HUWE1^FL
  Inhibition of HUWE1^FL protein ubiquitination activity (E3 autoubiquitination, free Ub chain formation): inhibit the protein ubiquitination activity of the ligase in a dose-dependent manner
[1]
  Inhibition of HUWE1^FL-driven MCL1 ubiquitination: inhibit the protein ubiquitination activity of the ligase in a dose-dependent manner
HUWE1^HECT [2]; 20 μM compound
  Compound ubiquitination by HUWE1^HECT (SEC, intact protein MS): assigned to the respective monoubiquitinated compound by intact protein MS
HUWE1^HECT [2]; 20 μM compound, UbΔGG (residues 1–74) instead of WT Ub
  Compound ubiquitination by HUWE1^HECT (SEC): No compound ubiquitination occurred
HUWE1^HECT [2]
  Inhibitor ubiquitination activity of HUWE1^HECT compared with other HECT domains: substantially higher activity for HUWE1^HECT than for the other HECT domains
[3]
  Pharmacokinetic properties: do not allow for in vivo applications
HUWE1^HECT [4]
  Ub transfer from the E2 to HUWE1^HECT: do not obstruct Ub transfer from the E2 to HUWE1^HECT
